Earlier results, collected in patent US20090048181A1, “Combination therapy with glatiramer acetate and n-acetylcysteine for the treatment of multiple sclerosis” (priority 2004, published 2009).

How the values were obtained:
[1] = tested on: EAE, a murine model of multiple sclerosis
TNF-α = details: ten human patients suffering from multiple sclerosis; efficacy could not be ascertained
[2] = tested on: relapsing-remitting multiple sclerosis; details: daily subcutaneous injections, 20 mg/injection

| Compound | induction of EAE ([1]; SJL/J mice, oral administration) | effect in animals with established EAE ([1]; established EAE, correlated with treatment in a dose-related manner) | TNF-α level (TNF-α) | appearance of "black holes" [2] | appearance of new lesions by magnetic resonance imaging (MRI) [2] | progression of disability [2] | relapse rates [2] |
| --- | --- | --- | --- | --- | --- | --- | --- |
| CC(=O)N[C@@H](CS)C(=O)O [N-acetylcysteine] | attenuated | improvement | elevation | – | – | – | – |
| L-glutamic acid polymer with L-alanine, L-lysine and L-tyrosine, acetate (salt) [glatiramer acetate] | – | – | – | reduce | reduce | reduce | reduce |
